Tests used:
Sortilin [1] = target: T1, Sortilin (Homo sapiens, UniProt Q99523); assay: Neurotensin Scintillation Proximity Assay
T1 sequence (Q99523 whole entry): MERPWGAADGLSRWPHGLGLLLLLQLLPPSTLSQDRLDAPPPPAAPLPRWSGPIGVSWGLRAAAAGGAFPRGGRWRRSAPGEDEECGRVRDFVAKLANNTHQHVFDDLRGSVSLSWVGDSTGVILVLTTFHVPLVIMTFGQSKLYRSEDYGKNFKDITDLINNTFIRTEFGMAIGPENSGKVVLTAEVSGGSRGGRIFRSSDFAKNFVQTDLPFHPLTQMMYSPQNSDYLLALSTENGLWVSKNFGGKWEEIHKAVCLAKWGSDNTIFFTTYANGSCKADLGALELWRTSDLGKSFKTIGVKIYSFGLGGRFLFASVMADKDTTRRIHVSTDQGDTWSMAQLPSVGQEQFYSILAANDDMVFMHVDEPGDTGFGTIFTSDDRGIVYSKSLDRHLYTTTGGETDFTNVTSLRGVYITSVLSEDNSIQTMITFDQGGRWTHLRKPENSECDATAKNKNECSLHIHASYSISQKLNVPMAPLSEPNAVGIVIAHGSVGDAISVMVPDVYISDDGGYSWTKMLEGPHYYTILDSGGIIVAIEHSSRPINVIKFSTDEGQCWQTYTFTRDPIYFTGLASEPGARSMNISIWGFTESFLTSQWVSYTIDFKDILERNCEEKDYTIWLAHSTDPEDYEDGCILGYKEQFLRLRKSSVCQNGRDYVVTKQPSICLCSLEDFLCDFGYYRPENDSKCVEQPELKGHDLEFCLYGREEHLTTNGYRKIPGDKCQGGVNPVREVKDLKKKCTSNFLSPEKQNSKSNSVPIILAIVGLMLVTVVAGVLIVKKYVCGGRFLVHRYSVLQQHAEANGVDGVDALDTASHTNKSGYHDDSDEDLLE
Experimental: Compound affinity was determined by measuring the displacement of [3H]-neurotensin binding to h-Sortilin in SPA format. Total volume of 40 μl in 50 mM HEPES pH 7.4 assay buffer containing 100 mM NaCl, 2.0 mM CaCl2, 0.1% BSA and 0.1% Tween-20. […] Dose-response evaluation of compounds was performed with 8 concentrations of drugs (covering 3 decades). IC50 values were calculated by nonlinear regression using the sigmoid concentration-response (variable slope) using CDD Vault software. All values reported are average of at least 2 determinations.

Sortilin [2] = target: T1, Sortilin; assay: Rapid Kinetics Assay
Experimental: Compounds were screened at a final assay concentration of 1 μM and a final DMSO concentration was 1%. To achieve this, compounds were diluted in DMSO from 10 mM stocks to 100 μM (100×final assay concentration) then diluted 1:100 in running buffer which contained no DMSO to establish a final assay concentration of compound of 1 μM and a final DMSO concentration of 1% [DMSO].Compounds and DMSO were mixed by plate shaking at 1000 rpm for 60 seconds using a Bioshake instrument.

Structure (SMILES)	IC50 (Sortilin [1])	Kd (Sortilin [2])
CC(C)(C)CC[C@H](NC1=NC2C=CC=CC2OC2C=CC=CC12)C(=O)O (some centres undefined) [US20250268854, Example 20]	1490 nM	
CC(C)(C)CC[C@H](NCC1=CC(Cl)CC(Cl)=C1)C(=O)O (some centres undefined) [US20250268854, Example 32]	840 nM	
COc1cccc(CN[C@@H](CCC(C)(C)C)C(=O)O)c1F [US20250268854, Example 34]	720 nM	492 nM
CC(C)(C)CC[C@H](NCc1cc2ccccc2[nH]1)C(=O)O [US20250268854, Example 50]	610 nM	
C[C@@H](N[C@@H](CCC(C)(C)C)C(=O)O)c1cccc2c1ccn2C [US20250268854, Example 63]	200 nM	56.7 nM
C[C@H](N[C@@H](CCC(C)(C)C)C(=O)O)c1cccc2c1ccn2C [US20250268854, Example 64]	460 nM	102 nM
CC(C)(C)CC[C@H](NCc1ccncn1)C(=O)O [US20250268854, Example 136]	1600 nM	26400 nM
CC(C)(C)CC[C@H](NCc1cccc(C#N)c1)C(=O)O [US20250268854, Example 142]	1260 nM	
COC1C=C(CN[C@@H](CCC(C)(C)C)C(=O)O)C=NC1 (some centres undefined) [US20250268854, Example 144]	430 nM	310 nM

Reference: BindingDB's records for patent US20250268854 (C/O Vesper Bio, 2025)
